# Measured values: PMC12523843, “Kuwanon A Targeted YWHAB in Hepatocellular Carcinoma Cells to Inhibit the Raf/MEK/ERK Signaling Pathway” (Cells, 2025)
# Where two headings read alike, the source gives them in different places.
# What was measured:
# [1] = system: MHCC97H and SMMC 7721 cells; assay: CCK8 cell viability screen of mulberry active substances; format: cell-based, human; details: 10 μM, 48 h
# Procedure: The CCK8 assay is used to investigate the effect of compounds on cell viability by measuring the amount of formazan dye. Firstly, 8000 cells were inoculated into each well of the 96-well plate with three replicates per condition. At the same time, add the corresponding mulberry active substances. After 48 h of incubation, 20 μL of the Cell Counting Kit-8 (CCK8) reagent (Beyotime, Shanghai, China) was added to each well. After being cultured under 37 °C and 5% carbon dioxide for 2–3 h, the absorbance was measured at 450 nm.
# [2] = system: MHCC97 H cells; assay: MTT IC50 determination in MHCC97 H; format: cell-based, human; details: MTT method, read-out: IC50 in MHCC97 H (screen)
# Procedure: (§1) Cell viability was assessed using MTT experiments. Cells, together with KA, were seeded into 96-well plates at a density of 2000 cells per well with three replicates per condition. DMSO was used as a control. At designated time points, 20 μL of MTT (Sigma, St. Louis, MO, USA) solution was added to each well and incubated for 3 h. After removing the culture medium, 200 μL of DMSO was added to dissolve the formazan crystals. The absorbance was then measured using a microplate reader at a wavelength of 560 nm.
# [3] = system: normal human liver cells (L-O2); assay: MTT IC50 determination in normal liver cells; format: cell-based; details: L-O2, MTT method
# Procedure: as §1
# [4] = system: MHCC97 H cells; assay: Transwell migration screen of selected compounds; format: cell-based, human; details: compounds at an IC50 concentration
# Procedure: (§2) The Transwell assay measured the migration and invasion of cells by calculating the number of cells that passed through the material. Prior to the Transwell migration assay, cells were serum-starved in FBS-free culture medium for 24 h. The cells were then detached using trypsin, washed 1–2 times with PBS, and resuspended in DMEM. Approximately 50,000–100,000 cells were seeded into the upper chamber of the Transwell insert. The lower chamber was filled with 600 μL of complete medium containing the test compound. The Transwell system was incubated for 12 h under standard culture conditions (37 °C, 5% CO2). After incubation, the migrated cells on the lower membrane surface were fixed with 4% paraformaldehyde (PFA) and stained with 0.1% crystal violet. Non-migrated cells remaining in the upper chamber were carefully removed with a cotton swab. Finally, the stained cells were visualized under a microscope. If matrix gel was needed, it should be added according to the instructions (Beyotime, Shanghai, China) before the cells were seeded.
# [5] = system: HCC cells (MHCC97 H and SMMC 7721); assay: Transwell migration (without Matrix-Gel) and invasion (with Matrix-Gel) assay; format: cell-based, human; details: Sorafenib 10 μM alone or 10 μM KA and 10 μM Sorafenib, 48 h
# Procedure: as §2, with “The Transwell system was incubated for 12 h under standard culture conditions (37 °C, 5% CO2).” left out
# [6] = system: MHCC97 H cells; design: method as in MCE website (https://www.medchemexpress.cn/); details: ref MCE website (https://www.medchemexpress.cn/); read-out: IC50 of Sorafenib in MHCC97 H; cited from earlier work
# [7] = system: SMMC 7721 cells; design: method as in MCE website (https://www.medchemexpress.cn/); details: ref MCE website (https://www.medchemexpress.cn/); read-out: IC50 of Sorafenib in SMMC 7721; cited from earlier work
# [8] = target: T1, YWHAB (tyrosine 3-monooxygenase/tryptophan 5-monooxygenase activation protein beta), endogenous in HCC cells (human (endogenous in MHCC97 H and SMMC 7721)), P31946; assay: native gel or EMSA; Blue native PAGE of cell lysates (IP cell lysis buffer, Coomassie G-250), then immunoblot; cells treated with KA or DMSO (less dimer with KA); details: remark: other sources report otherwise
# T1 chain: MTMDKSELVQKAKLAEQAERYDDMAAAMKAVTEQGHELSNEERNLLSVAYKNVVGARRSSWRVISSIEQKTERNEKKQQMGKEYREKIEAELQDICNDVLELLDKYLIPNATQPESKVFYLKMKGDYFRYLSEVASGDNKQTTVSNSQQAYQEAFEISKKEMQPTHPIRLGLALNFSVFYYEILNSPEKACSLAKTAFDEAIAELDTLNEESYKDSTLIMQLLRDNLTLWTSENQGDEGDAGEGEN
# [9] = target: T2, FLAG-YWHAB, P31946; assay: as above; details: remark: other sources report otherwise
# T2 chain: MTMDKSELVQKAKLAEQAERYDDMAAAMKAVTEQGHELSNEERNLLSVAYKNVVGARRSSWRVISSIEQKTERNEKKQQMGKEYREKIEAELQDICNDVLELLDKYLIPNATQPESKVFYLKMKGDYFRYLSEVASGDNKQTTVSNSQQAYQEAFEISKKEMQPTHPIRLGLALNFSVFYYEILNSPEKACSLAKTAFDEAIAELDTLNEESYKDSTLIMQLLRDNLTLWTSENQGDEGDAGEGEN
molecule,measurement,setting,value
"Cc1cc2c3c(c1)-c1c(O)cc(-c4cc5ccc(O)cc5o4)cc1OC3(c1ccc(O)cc1O)Oc1cc(O)ccc1-2 (centres unmarked) [Albanol B, albanol B]",viability of HCC cells (CCK8),[1],significantly inhibited the viability of HCC cells
same,IC50,[2],< 20 µM
same,IC50 in normal liver cells,[3],relatively low
same,migration of MHCC97 H (Transwell),[4],significantly inhibited the migration of MHCC97 H
"CC(C)=CCc1c(-c2ccc(O)cc2O)oc2c([C@H]3C=C(C)C[C@@H](c4ccc(O)cc4O)[C@@H]3C(=O)c3ccc(O)cc3O)c(O)cc(O)c2c1=O [Kuwanon G, kuwanon G]",IC50,[2],< 20 µM
"CC(C)=CCC/C(C)=C/Cc1c(O)ccc(-c2oc3cc(O)cc(O)c3c(=O)c2CC=C(C)C)c1O [L8-06, 3'-geranyl-3-prenyl-2',4',5,7-tetrahydroxyflavone]",IC50,"[2]; Homo sapiens, MHCC97H",< 20 µM
CC(C)=CCc1c(-c2ccc(O)cc2O)oc2c3c(cc(O)c2c1=O)OC(C)(C)C=C3 [Morusin],IC50,"[2]; Homo sapiens, MHCC97H",< 20 µM
CC(C)(O)CCc1c(-c2ccc(O)cc2O)oc2c3c(cc(O)c2c1=O)OC(C)(C)C=C3 [Morusinol],IC50,"[2]; Homo sapiens, MHCC97H",< 20 µM
CC(C)=CCc1c(-c2ccc(O)cc2O)oc2c(CC=C(C)C)c(O)cc(O)c2c1=O [Mulberrin],IC50,[2],< 20 µM
CNC(=O)c1cc(Oc2ccc(NC(=O)Nc3ccc(Cl)c(C(F)(F)F)c3)cc2)ccn1 [Sorafenib],"HCC cell migration/invasion (Transwell, polycarbonate membrane or Matrigel)",[5],no significant effect
same,IC50,[6],~10 µM
same,IC50,[7],~10 µM
sanggenol L,viability of HCC cells (CCK8),[1],significantly inhibited the viability of HCC cells
same,IC50,[2],< 20 µM
same,migration of MHCC97 H (Transwell),[4],significantly inhibited the migration of MHCC97 H
sanggenone C,viability of HCC cells (CCK8),[1],significantly inhibited the viability of HCC cells
same,IC50,[2],< 20 µM
sanggenone D,IC50,[2],< 20 µM
"YWHAB (tyrosine 3-monooxygenase/tryptophan 5-monooxygenase activation protein beta), endogenous in HCC cells, P31946 1-246 (natural protein) MTMDKSELVQKAKLAEQAERYDDMAAAMKAVTEQGHELSNEERNLLSVAYKNVVGARRSSWRVISSIEQKTERNEKKQQMGKEYREKIEAELQDICNDVLELLDKYLIPNATQPESKVFYLKMKGDYFRYLSEVASGDNKQTTVSNSQQAYQEAFEISKKEMQPTHPIRLGLALNFSVFYYEILNSPEKACSLAKTAFDEAIAELDTLNEESYKDSTLIMQLLRDNLTLWTSENQGDEGDAGEGEN",stoichiometry N,[8],2
"FLAG-YWHAB, P31946 1-246 (natural protein) MTMDKSELVQKAKLAEQAERYDDMAAAMKAVTEQGHELSNEERNLLSVAYKNVVGARRSSWRVISSIEQKTERNEKKQQMGKEYREKIEAELQDICNDVLELLDKYLIPNATQPESKVFYLKMKGDYFRYLSEVASGDNKQTTVSNSQQAYQEAFEISKKEMQPTHPIRLGLALNFSVFYYEILNSPEKACSLAKTAFDEAIAELDTLNEESYKDSTLIMQLLRDNLTLWTSENQGDEGDAGEGEN",stoichiometry N,[9],2
